Experimental data taken from ChEMBL document CHEMBL1201862, “PubChem BioAssay data set” (2004).
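Growth conditions: 96-well plates. Treatment: test compound, 48 hours, 5 concentrations. Analysis: linear interpolation between bracketing concentrations; unreached endpoints set to highest concentration. Abbreviation: GI50, concentration required for 50% inhibition of growth.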 The source made the active and inactive calls. Cut-off read from the data, not from the text of the source: active = GI50 up to about 1.1 µM and inactive = higher.

Experiments:
Experiment in all cases: DTP human tumour cell line panel, 48 h
UACC-257 = test system: UACC-257
OVCAR-3 = test system: OVCAR-3
HCT-15 = test system: HCT-15
NCI-H522 = test system: NCI-H522
SF-268 = test system: SF-268
NCI-H23 = test system: NCI-H23
HOP-92 = test system: HOP-92
PC-3 = test system: PC-3
SNB-19 = test system: SNB-19
OVCAR-4 = test system: OVCAR-4
SK-MEL-2 = test system: SK-MEL-2
NCI-H460 = test system: NCI-H460
SK-MEL-28 = test system: SK-MEL-28
HCT-116 = test system: HCT-116
OVCAR-5 = test system: OVCAR-5
SNB-75 = test system: SNB-75
SW-620 = test system: SW-620
U-251 = test system: U-251
NCI/ADR-RES = test system: NCI/ADR-RES
DU-145 = test system: DU-145
Malme-3M = test system: Malme-3M
MDA-MB-231 = test system: MDA-MB-231
MDA-MB-435 = test system: MDA-MB-435
RPMI-8226 = test system: RPMI-8226
BT-549 = test system: BT-549
HT-29 = test system: HT-29
SK-MEL-5 = test system: SK-MEL-5
CCRF-CEM = test system: CCRF-CEM
UO-31 = test system: UO-31
COLO 205 = test system: COLO 205
TK-10 = test system: TK-10
SN12C = test system: SN12C
Hs-578T = test system: Hs-578T
SR = test system: SR
OVCAR-8 = test system: OVCAR-8
RXF 393 = test system: RXF 393
MCF7 = test system: MCF7
K562 = test system: K562
HL-60 = test system: HL-60
IGROV-1 = test system: IGROV-1
ACHN = test system: ACHN
T47D = test system: T47D
KM12 = test system: KM12
A498 = test system: A498
UACC-62 = test system: UACC-62
EKVX = test system: EKVX
HOP-62 = test system: HOP-62
786-0 = test system: 786-0
LOX IMVI = test system: LOX IMVI
A549 = test system: A549
SK-OV-3 = test system: SK-OV-3
SF-539 = test system: SF-539
MDA-N = test system: MDA-N
M14 = test system: M14
SF-295 = test system: SF-295
HCC 2998 = test system: HCC 2998
MOLT-4 = test system: MOLT-4
NCI-H226 = test system: NCI-H226
CAKI-1 = test system: CAKI-1

Measured: GI50

CCCCOc1ccc(NC(=N)Nc2ccc(Cl)cc2)cc1
inactive: OVCAR-3 10.2 µM | NCI-H522 5.86 µM | HOP-92 2.58 µM | PC-3 2.06 µM | SNB-19 2.74 µM | OVCAR-4 1.84 µM | SK-MEL-2 2.64 µM | NCI-H460 3.7 µM | SK-MEL-28 13.2 µM | OVCAR-5 1.68 µM | SNB-75 4.47 µM | U-251 9.68 µM | NCI/ADR-RES 2.28 µM | Malme-3M 3.47 µM | MDA-MB-231 13.2 µM | MDA-MB-435 11.1 µM | RPMI-8226 3.89 µM | BT-549 9.57 µM | UO-31 2.43 µM | TK-10 5.16 µM | Hs-578T 5.5 µM | SR 3.38 µM | OVCAR-8 11.2 µM | RXF 393 11.5 µM | K562 3.01 µM | HL-60 6.49 µM | IGROV-1 1.22 µM | KM12 12.5 µM | UACC-62 12.3 µM | EKVX 2.37 µM | 786-0 11.1 µM | LOX IMVI 3.05 µM | SK-OV-3 10.6 µM | MDA-N 5.58 µM | M14 3.66 µM | SF-295 2.3 µM | MOLT-4 1.42 µM | NCI-H226 12.7 µM
9.35 µM: HCT-15
active: UACC-257 0.176 µM | SF-268 0.92 µM | NCI-H23 1.09 µM | HCT-116 0.421 µM | SW-620 1.03 µM | DU-145 0.462 µM | HT-29 0.243 µM | SK-MEL-5 0.284 µM | CCRF-CEM 0.251 µM | COLO 205 0.125 µM | SN12C 0.791 µM | MCF7 0.135 µM | ACHN 0.462 µM | T47D 0.474 µM | A498 0.443 µM | HOP-62 0.235 µM | A549 0.741 µM | SF-539 0.558 µM | HCC 2998 0.358 µM

CN(C)Cc1cc(/N=N/c2ccc(Cl)cc2)cc(CN(C)C)c1O
inactive: UACC-257 16.2 µM | OVCAR-3 1.84 µM | NCI-H522 1.77 µM | SF-268 10.8 µM | NCI-H23 21.2 µM | HOP-92 2.45 µM | PC-3 5.41 µM | SNB-19 10.6 µM | SK-MEL-2 12.9 µM | NCI-H460 5.15 µM | SK-MEL-28 11.7 µM | HCT-116 4.85 µM | SNB-75 10.9 µM | SW-620 8.09 µM | U-251 7.24 µM | NCI/ADR-RES 3.07 µM | DU-145 16.9 µM | Malme-3M 14.7 µM | MDA-MB-231 7.71 µM | MDA-MB-435 12.2 µM | RPMI-8226 12.8 µM | BT-549 11 µM | HT-29 6.62 µM | SK-MEL-5 8.79 µM | CCRF-CEM 2.1 µM | UO-31 1.52 µM | COLO 205 3.99 µM | TK-10 5.94 µM | SN12C 11.4 µM | Hs-578T 11.3 µM | SR 4.59 µM | OVCAR-8 3.75 µM | RXF 393 9.44 µM | MCF7 7.87 µM | K562 2.52 µM | HL-60 1.44 µM | IGROV-1 3.38 µM | ACHN 6.43 µM | T47D 10.5 µM | KM12 6.55 µM | A498 14.7 µM | UACC-62 13.9 µM | EKVX > 10 µM | CAKI-1 12.1 µM | HOP-62 2.58 µM | 786-0 5.53 µM | LOX IMVI 3.1 µM | A549 8.93 µM | SK-OV-3 17.1 µM | SF-539 10 µM | MDA-N 13.2 µM | M14 14.5 µM | SF-295 11.8 µM | HCC 2998 10.5 µM | MOLT-4 2.75 µM | NCI-H226 4.39 µM
6.52 µM: HCT-15

COCOc1cc(OCOC)cc(C(=O)Oc2ccccc2)c1
> 100 µM: HCT-15
inactive: UACC-257 > 100 µM | OVCAR-3 > 100 µM | NCI-H522 48.3 µM | SF-268 > 100 µM | NCI-H23 > 100 µM | HOP-92 > 100 µM | PC-3 93.8 µM | SNB-19 > 100 µM | OVCAR-4 > 100 µM | SK-MEL-2 > 100 µM | NCI-H460 > 100 µM | SK-MEL-28 > 100 µM | HCT-116 > 100 µM | OVCAR-5 > 100 µM | SNB-75 78.3 µM | SW-620 > 100 µM | U-251 > 100 µM | NCI/ADR-RES > 100 µM | DU-145 > 100 µM | Malme-3M > 100 µM | MDA-MB-231 > 100 µM | MDA-MB-435 > 100 µM | RPMI-8226 61.7 µM | BT-549 > 100 µM | HT-29 > 100 µM | SK-MEL-5 > 100 µM | UO-31 78.5 µM | COLO 205 > 100 µM | TK-10 > 100 µM | SN12C > 100 µM | Hs-578T 43.1 µM | SR 85.9 µM | OVCAR-8 > 100 µM | RXF 393 > 100 µM | MCF7 > 100 µM | K562 > 100 µM | HL-60 > 100 µM | IGROV-1 > 100 µM | ACHN > 100 µM | T47D 57.4 µM | KM12 > 100 µM | A498 > 100 µM | UACC-62 > 100 µM | EKVX 91.4 µM | CAKI-1 > 100 µM | HOP-62 > 100 µM | 786-0 > 100 µM | LOX IMVI > 100 µM | A549 > 100 µM | SK-OV-3 > 100 µM | SF-539 > 100 µM | MDA-N > 100 µM | M14 > 100 µM | SF-295 > 100 µM | HCC 2998 > 100 µM | MOLT-4 > 100 µM | NCI-H226 > 100 µM
